Measured values from patent publication US9938281B2 (Merck Sharp & Dohme Corp., priority 2012, dated 2018).

Key:
[1] = biological target: T1, PI3K-delta (Homo sapiens, UniProt O00329); experiment: HTRF PI3K biochemical assay, delta isoform; conditions: form screened (neutral or TFA salt) given, read-out: PI3Kdelta IC50
T1 construct: purchased Upstate; Millipore 14-604

[2] = biological target: T2, PI3K-alpha (Homo sapiens, UniProt P42336); experiment: HTRF PI3K biochemical assay, alpha isoform; conditions: ratio PI3K-alpha IC50 value / PI3K-delta IC50 value
T2 construct: purchased Upstate; Millipore 14-602
T2 sequence (P42336 whole entry, canonical isoform): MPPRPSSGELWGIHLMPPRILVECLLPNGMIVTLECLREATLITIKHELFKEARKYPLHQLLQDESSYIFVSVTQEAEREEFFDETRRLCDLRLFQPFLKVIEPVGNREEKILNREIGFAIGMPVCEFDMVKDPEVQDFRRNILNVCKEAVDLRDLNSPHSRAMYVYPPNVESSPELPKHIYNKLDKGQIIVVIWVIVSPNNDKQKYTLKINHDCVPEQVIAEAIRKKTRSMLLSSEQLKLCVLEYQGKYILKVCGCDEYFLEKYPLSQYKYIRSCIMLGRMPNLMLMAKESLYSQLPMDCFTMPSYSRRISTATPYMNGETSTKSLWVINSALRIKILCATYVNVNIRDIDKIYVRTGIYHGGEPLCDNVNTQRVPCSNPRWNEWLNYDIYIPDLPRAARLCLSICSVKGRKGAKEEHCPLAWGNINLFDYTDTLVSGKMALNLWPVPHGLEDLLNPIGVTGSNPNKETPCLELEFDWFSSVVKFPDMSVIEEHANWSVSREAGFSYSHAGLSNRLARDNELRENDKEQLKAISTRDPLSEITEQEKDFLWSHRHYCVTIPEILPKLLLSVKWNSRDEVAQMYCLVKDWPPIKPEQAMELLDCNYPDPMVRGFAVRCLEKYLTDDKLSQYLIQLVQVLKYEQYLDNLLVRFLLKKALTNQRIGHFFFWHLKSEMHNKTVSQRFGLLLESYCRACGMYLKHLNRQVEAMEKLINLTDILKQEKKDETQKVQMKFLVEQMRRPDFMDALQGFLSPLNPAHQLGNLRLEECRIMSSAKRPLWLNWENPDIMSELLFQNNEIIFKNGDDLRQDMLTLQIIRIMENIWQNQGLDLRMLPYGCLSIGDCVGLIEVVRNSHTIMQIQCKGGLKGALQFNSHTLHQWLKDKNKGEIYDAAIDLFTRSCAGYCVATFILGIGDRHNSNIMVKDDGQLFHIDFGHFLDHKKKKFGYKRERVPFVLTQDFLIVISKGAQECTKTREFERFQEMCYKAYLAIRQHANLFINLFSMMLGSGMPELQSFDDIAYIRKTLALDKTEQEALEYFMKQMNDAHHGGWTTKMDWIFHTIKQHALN
T2 sequence (P27986 whole entry partner, canonical isoform): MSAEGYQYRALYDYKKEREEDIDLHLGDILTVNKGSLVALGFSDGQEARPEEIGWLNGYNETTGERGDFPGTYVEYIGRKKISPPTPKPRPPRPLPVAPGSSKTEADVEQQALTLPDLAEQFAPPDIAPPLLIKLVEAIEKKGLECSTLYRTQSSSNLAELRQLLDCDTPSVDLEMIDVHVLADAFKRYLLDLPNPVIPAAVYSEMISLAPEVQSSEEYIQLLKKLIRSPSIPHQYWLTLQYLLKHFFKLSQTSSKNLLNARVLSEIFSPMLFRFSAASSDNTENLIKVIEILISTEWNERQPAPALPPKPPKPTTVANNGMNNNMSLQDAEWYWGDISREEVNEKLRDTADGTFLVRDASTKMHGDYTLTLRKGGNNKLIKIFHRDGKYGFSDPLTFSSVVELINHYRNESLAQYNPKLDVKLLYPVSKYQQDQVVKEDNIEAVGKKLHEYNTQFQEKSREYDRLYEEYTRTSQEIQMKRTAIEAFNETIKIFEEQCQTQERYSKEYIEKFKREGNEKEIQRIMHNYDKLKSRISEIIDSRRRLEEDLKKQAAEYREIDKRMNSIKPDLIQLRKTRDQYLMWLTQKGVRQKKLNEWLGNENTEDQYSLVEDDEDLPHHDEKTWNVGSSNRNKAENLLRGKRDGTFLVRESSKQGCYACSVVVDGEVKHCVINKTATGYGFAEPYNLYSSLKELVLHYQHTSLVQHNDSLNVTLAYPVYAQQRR

T1 sequence (O00329 whole entry, canonical isoform): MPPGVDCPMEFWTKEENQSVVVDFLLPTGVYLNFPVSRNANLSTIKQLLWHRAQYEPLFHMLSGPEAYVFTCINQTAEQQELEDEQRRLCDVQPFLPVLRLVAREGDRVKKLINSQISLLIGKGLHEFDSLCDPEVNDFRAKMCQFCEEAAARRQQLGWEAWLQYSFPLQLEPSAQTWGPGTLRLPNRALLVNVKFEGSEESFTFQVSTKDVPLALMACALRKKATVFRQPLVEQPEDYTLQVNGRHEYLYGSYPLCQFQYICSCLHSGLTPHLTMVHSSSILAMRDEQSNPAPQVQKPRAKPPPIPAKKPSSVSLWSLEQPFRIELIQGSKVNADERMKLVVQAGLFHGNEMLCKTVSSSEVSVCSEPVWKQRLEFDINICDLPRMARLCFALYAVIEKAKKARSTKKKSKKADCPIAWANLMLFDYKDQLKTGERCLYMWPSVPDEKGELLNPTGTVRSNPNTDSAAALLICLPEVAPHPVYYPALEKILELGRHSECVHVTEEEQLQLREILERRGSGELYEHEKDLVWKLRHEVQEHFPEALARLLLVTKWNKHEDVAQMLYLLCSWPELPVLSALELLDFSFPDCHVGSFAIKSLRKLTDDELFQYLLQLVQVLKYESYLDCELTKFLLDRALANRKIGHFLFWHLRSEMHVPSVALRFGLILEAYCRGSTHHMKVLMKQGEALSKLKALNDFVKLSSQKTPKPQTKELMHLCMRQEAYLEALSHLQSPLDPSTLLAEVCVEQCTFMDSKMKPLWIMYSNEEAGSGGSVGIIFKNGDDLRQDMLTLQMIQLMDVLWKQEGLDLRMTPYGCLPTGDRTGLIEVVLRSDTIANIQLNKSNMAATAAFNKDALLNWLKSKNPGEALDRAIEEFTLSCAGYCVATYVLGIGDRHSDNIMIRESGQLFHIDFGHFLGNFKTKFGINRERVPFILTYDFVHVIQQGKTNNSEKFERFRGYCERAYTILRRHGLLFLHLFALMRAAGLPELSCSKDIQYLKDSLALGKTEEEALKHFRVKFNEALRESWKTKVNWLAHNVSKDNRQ
T1 sequence (P27986 whole entry partner, canonical isoform): as the sequence (P27986 whole entry partner, canonical isoform) above

Structure (SMILES)	IC50 [1] [nM]	Selectivity versus PI3Kalpha [2]
CCn1c(-c2cnc(C)nc2)nc2c(N[C@H]3CCN(C(=O)C4CC(O)C4)C3)ncnc21 (mixture of isomers) [Compound 2-63, (cis and trans)-3-{[(3S)-3-{[9-ethyl-8-(2-methylpyrimidin-5-yl)-9H-purin-6-yl]amino}pyrrolidin-1-yl]carbonyl}cyclobutanol]	< 1	>10
CCn1c(-c2cnc(C)nc2)nc2c(NC3CN(C(=O)OC(C)(C)C)CC3O)ncnc21 (racemic) [Compound 1-15, ((3R,4R) and (3S,4S))-tert-butyl 3-{[9-ethyl-8-(2-methylpyrimidin-5-yl)-9H-purin-6-yl]amino}-4-hydroxypyrrolidine-1-carboxylate]	10	>10
CCn1c(-c2cnc(C)nc2)nc2c(NC3CN(C(=O)OC(C)(C)C)CC3(F)F)ncnc21 (racemic) [Compound 1-21, (R and S)-tert-butyl 4-{[9-ethyl-8-(2-methylpyrimidin-5-yl)-9H-purin-6-yl]amino}-3,3-difluoropyrrolidine-1-carboxylate]	9.4	>10
CCn1c(-c2cnc(C)nc2)nc2c(N[C@H]3CCN(C(=O)C4CCOC(C)(C)C4)C3)ncnc21 (mixture of isomers) [Compound 2-20, ((S and R)-2,2-dimethyltetrahydro-2H-pyran-4-yl)((S)-3-((9-ethyl-8-(2-methylpyrimidin-5-yl)-9H-purin-6-yl)amino)pyrrolidin-1-yl)methanone]	1.4	>10
CCn1c(-c2cnc(C)nc2)nc2c(NC3CN(C(=O)C4CC4)CC3(F)F)ncnc21 (racemic) [Compound 2-25, N-[(3S and 3R)-1-(cyclopropylcarbonyl)-4,4-difluoropyrrolidin-3-yl]-9-ethyl-8-(2-methylpyrimidin-5-yl)-9H-purin-6-amine]	3.7	>10
CCn1c(-c2cnc(C)nc2)nc2c(N[C@H]3CCN(C(=O)C4CC4CF)C3)ncnc21 (mixture of isomers) [Compound 2-37, ((S)-3-((9-ethyl-8-(2-methylpyrimidin-5-yl)-9H-purin-6-yl)amino)pyrrolidin-1-yl)((1S,2S and 1R,2R)-2-(fluoromethyl)cyclopropyl) methanone]	< 1	>10
CCn1c(-c2cnc(C)nc2)nc2c(N[C@H]3CCN(C(=O)C4CC4(F)F)C3)ncnc21 (mixture of isomers) [Compound 2-55, N-{(3S)-1-[((R and S)-2,2-difluorocyclopropyl)carbonyl]pyrrolidin-3-yl}-9-ethyl-8-(2-methylpyrimidin-5-yl)-9H-purin-6-amine]	1.5	>10
CCn1c(-c2cnc(C)nc2)nc2c(N[C@H]3CCN(C(=O)C4CCCO4)C3)ncnc21 (single isomer, unassigned) [Compound 2-33, 9-ethyl-8-(2-methylpyrimidin-5-yl)-N-[(3S)-1-((R or S)-tetrahydrofuran-2-ylcarbonyl)pyrrolidin-3-yl]-9H-purin-6-amine]	–	>10
CCn1c(-c2ccc(C(F)(F)F)nc2)nc2c(N[C@H]3CCN(C(=O)C4CCOC4)C3)ncnc21 (single isomer, unassigned) [Compound 2-102, 9-ethyl-N-{(3S)-1-[(3S or 3R)-tetrahydrofuran-3-ylcarbonyl]pyrrolidin-3-yl}-8-[6-(trifluoromethyl)pyridin-3-yl]-9H-purin-6-amine]	–	>10
CCn1ncc(-c2nc3c(N[C@@H]4CCN(C(=O)c5nc(C)oc5C)C4)ncnc3n2C)c1C [Compound 2-2, N-{(3R)-1-[(2,5-dimethyl-1,3-oxazol-4-yl)carbonyl]pyrrolidin-3-yl}-8-(1-ethyl-5-methyl-1H-pyrazol-4-yl)-9-methyl-9H-purin-6-amine]	52	–
